For test [1], the system named is Verticillium. Put plainly: Jar test 2015: Verticillium microsclerotia colonies in treated soil (soil moisture 35% w/w). To be noted: Metam 68 gal/acre (323 kg active/ha). Format: cell-based, Verticillium dahliae. The method, then: These investigations were performed under laboratory conditions in an initial jar test. We also investigated the pathogen control efficacy of LSS treatments, at 30 gal/acre (90 pounds/acre or 101 Kg/ha of calcium polysulfide) and at 90 gal/acre (276 pounds/acre or 310 Kg/ha of calcium polysulfide), and combined Metam/LSS treatments using Sectagon® brand metam at 20 gal/acre Metam (84 pounds/acre or 94 Kg/ha of metam sodium) with 40 gal/acre LSS (122 pounds/acre or 138 Kg/ha of calcium polysulfide); and at 30 gal/acre Metam (126 pounds/acre or […] of metam sodium) with 20 gal/acre LSS (60 pounds/acre or 67 kg/ha of calcium polysulfide). […] This may be due to lower water saturation in the 2016 tests compared to the saturation in 2015 tests, which was near 100%.
The major difference between the 2015 tests and the 2016 tests was soil moisture. For the 2015 tests the soil moisture was set at 35% w/w (ca. 100% field capacity). For the 2016 tests, the soil moisture was set at 20% w/w (ca. 66% field capacity).
Differences in test protocol between 2015 and 2016 tests are summarized below, and colony counts per gram of dry soil for the 2015 tests are shown below.
2015: Soil Moisture 35% w/w (ca. 100% field capacity)
2016: Decided 2015 soil moisture was too high; reduced to 20% w/w. […]

The subject of the next test is soilborne disease. To be noted: about 40 gallons of metam sodium per acre (190 Kg/ha); commercial conditions; cited from earlier work.
A further test concerns Black Dot. The test is described as follows: Field test near Moses Lake, Wash.: black dot colonies in soil after shank treatment. More on the design: species or system Colletotrichum coccodes. The following applies: single sample sites, 4 inches depth; metam 45 gal/acre; LSS 90 gal/acre; metam + LSS 30 + 30 gal/acre. The method, then: (§1) A field test was performed in small plots in a grower's location in near Moses Lake, Wash. using commercial equipment, shanking the product 8-9 inches into the ground, in February 2016. A few treated areas were sampled a few months after treatment. This field is believed to be low in pest pressure. […] The mixture is compatible as a ground application, including using standard tanks, hoses, nozzles, and shanks. It is believed the product will also be stable when added to water to form a dilute product, due to the sodium or potassium hydroxide in metam. Therefore, alkali sulfide salts need not be added.
(§2) Location 1 was treated with 45 gallons per acre of Sectagon®, the metam sodium solution, equivalent to 191 pounds metam sodium per acre. This is considered a standard treatment protocol. Section 2 was treated with only liquid lime sulfur, at 90 gallons per acre (276 pounds calcium polysulfide/acre). Section 3 was treated with 30 gallons per acre Sectagon® and 30 gallons per acre liquid lime sulfur (92 pounds calcium polysulfide and 127 pounds metam sodium per acre). The treatment chemicals were obtained from Tessenderlo Kerley. A sufficient time following the treatments, V. dahliae concentrations and black dot concentrations were determined at 4 inches depth and at 8 inches depth at three random sample sites in each treated plot. No controls were run, and the variability in samples were high. […]

Test [2] relates to Verticillium. Put plainly: Example 6: Verticillium population in treated farm soil samples. Format: cell-based. The following applies: soil from another location.
The test system of a further test is V. dahliae. Put plainly: Field test near Moses Lake, Wash.: V. dahliae colonies in soil after shank treatment. Set-up: species or system Verticillium dahliae. The following applies: average of three sample sites, metam sodium 191 pounds/acre, calcium polysulfide 276 pounds/acre. The method, then: as §1, §2
A further test deals with Pythium. Put plainly: Example 6: Pythium population in treated farm soil samples. Format: cell-based. To be noted: soil from another location; average over rates: LSS 45 and 90 gal/acre; metam sodium 20 and 40 gal/acre; combination 20 and 40 gal metam with 45 gal LSS; untreated 150. The method, then:
Soil from a farm located in Washington state was treated with various solutions, and subsequently the population of Verticillium in treated samples were determined. Untreated samples contained 31 CFU per gram of dry soil. Soil treated with 90 gallons per acre liquid lime sulfur (276 pounds/acre or 309 kg/ha of calcium polysulfide) had less than 2 CFU per gram of dry soil. […] Samples treated with 170 pounds of metam sodium per acre and with a mixture of 138 pounds calcium polysulfide and 170 pounds of metam sodium per acre had about 70 to 80 CFU per gram of dry soil. […] The reason is not understood, and may reflect test protocols.
Clearly the test protocol and/or sample variability were over-riding factors. In tests on soil from another location, untreated soil had 150 CFU Pythium per gram of dry soil.

`CNC(=S)S` [Metam, sodium methyldithiocarbamate]: in the test with Verticillium [1], the “Microsclerotia (Verticillium) per gram of soil, ms/g, 2015” value was determined as 3 ms/g. Also, the “reduction of certain soilborne disease” value in the test on soilborne disease is recorded as around 70%. For the same compound, in the test on Black Dot, the “Black Dot, 4″” value is listed as 0 colonies per gram of soil. Also, the “suppression of the Verticillium” value with Verticillium [2] is on record as “only modest suppression”. The “average Verticillium CFU per gram of dry soil” value in the test on Verticillium [2] (average over rates: LSS 45 and 90 gal/acre, metam sodium 20 and 40 gal/acre, mixture 20 and 40 gal metam with 45 gal LSS, untreated 41) is given as 30 CFU per gram of dry soil. For the same compound, the “averaged colonies of V. dahlia per gram of soil at four inches” value in the test with V. dahliae (mixture 92 + 127 pounds/acre) is 30 colonies per gram of soil. Moreover, in the test with V. dahliae (mixture 92 + 127 pounds/acre (8 inch samples called suspect)), the “averaged colonies of V. dahlia per gram of soil at eight inches” value is on record as 3 colonies per gram of soil. Moreover, the “average CFU Pythium per gram of dry soil” value in the test on Pythium was 60 CFU per gram of dry soil.

The values are drawn from patent US11039618B2, “Metam salts and polysulfide soil treatment” (Tessenderlo Kerley, Inc, priority 2016, dated 2021).
